Laboratory results: patent US7915245B2, “Methods and compositions of trail-death receptor agonists/activators” (The Board of Regents of the University of Texas System, priority 2007, dated 2011)

Experiments:
[1] = test system: prostate cancer LNCaP cells xenografted; test: LNCaP xenograft tumor growth; type: in vivo, Balb c nude mice; conditions: 40 mg/kg iv, 5 days per week
Description: (§1) FIG. 28. […] LNCaP cells (2×10^6 cells as a 50% suspension in Matrigel, Becton Dickinson, Bedford, Mass., in a final volume of 0.1 ml) were injected subcutaneously in the right flank of Balb c nude mice. After tumor formation (about 100 mm^3), nude mice were treated (iv) with vehicle control (0.1 ml normal saline), and DRA9S (40 mg/kg, 0.1 ml volume) everyday 5 days per week throughout the duration of the experiment. Tumor volume was calculated using the equation: (volume=length×width×depth×0.5236 mm^3). Data represent mean±S.E.
(§2) LNCaP cells (2×10^6 cells as a 50% suspension in Matrigel, Becton Dickinson, Bedford, Mass., in a final volume of 0.1 ml) were injected subcutaneously in the right flank of Balb c nude mice. After tumor formation (about 100 mm^3), nude mice were treated (iv) with vehicle control (0.1 ml normal saline), and DRA9S (40 mg/kg, 0.1 ml volume) everyday 5 days per week throughout the duration of the experiment. Tumor volume was calculated using the equation: (volume=length×width×depth×0.5236 mm^3). See, for example, FIG. 28. Data represent mean ±S.E.

[2] = test system: pancreatic cancer AsPC-1 cells xenografted; test: AsPC-1 xenograft tumor growth; type: in vivo, Balb c nude mice; conditions: 20, 40 mg/kg iv, 5 days per week
Description: FIG. 27. […] AsPC-1 cells (2×10^6 cells as a 50% suspension in Matrigel, Becton Dickinson, Bedford, Mass., in a final volume of 0.1 ml) were injected subcutaneously in the right flank of Balb c nude mice. After tumor formation (about 100 mm^3), nude mice (10 per group) were treated (iv) with vehicle control (0.1 ml normal saline), DRA11 (20 mg/kg, 0.1 ml volume), and DRA11 (40 mg/kg, 0.1 ml volume) everyday 5 days per week throughout the duration of the experiment. Tumor volume was calculated using the equation: (volume=length×width×depth×0.5236 mm^3).
FIG. 31. […] MDA-MB-468 cells (2×10^6 cells, in a final volume of 0.1 ml PBS) were injected subcutaneously in the right flank of Balb c nude mice. […] Tumor volume was calculated using the equation: (volume=length×width×depth×0.5236 mm^3). […]
AsPC-1 cells (2×10^6 cells as a 50% suspension in Matrigel, Becton Dickinson, Bedford, Mass., in a final volume of 0.1 ml) were injected subcutaneously in the right flank of Balb c nude mice. […] Tumor volume was calculated using the equation: (volume=length×width×depth×0.5236 mm^3). […]
MDA-MB-468 cells (2×10^6 cells, in a final volume of 0.1 ml PBS) were injected subcutaneously in the right flank of Balb c nude mice. […] Tumor volume was calculated using the equation: (volume=length×width×depth×0.5236 mm^3). […]

[3] = test system: breast cancer MDA-MB-468 cells xenografted; test: MDA-MB-468 xenograft tumor growth; type: in vivo, Balb c nude mice; conditions: 40 mg/kg iv, 5 days per week
Description: as §1, with “30.” for “28.”, “MDA-MB-468” for “LNCaP”, “cells,” for “cells as a 50% suspension in Matrigel, Becton Dickinson, Bedford, Mass.,”, “ml PBS)” for “ml)”
as §2, with “MDA-MB-468” for “LNCaP”, “cells,” for “cells as a 50% suspension in Matrigel, Becton Dickinson, Bedford, Mass.,”, “ml PBS)” for “ml)”, “30.” for “28.”

[4] = test system: mesothelioma M33K cell line; test: XTT cell viability, mesothelioma M33K; type: cell-based; conditions: z-VAD-fmk 25 μM 2 h pretreatment, then DRA 72 h
Description: FIG. 53. […] M33K cells were pretreated with either control peptide (10 μM) or pan caspase inhibitor (z-VAD-fink, 25 μM) for 2 h, followed by treatment with various doses of DRA11, DRA9 and DRA9S for 72 h. At the end of incubation, cell viability was measured by XTT assay. Data represent the mean±S.D.
XTT Assay. Cells (1×10^4 cells per well) were seeded in 96-well plates (flat bottom), and treated with death receptor agonists/activators/small molecules in the presence or absence of TNF-related apoptosis inducing ligand (TRAIL). Plates were incubated for various time points at 37° C. and 5% CO2. Before the end of the experiment, 50 μl XTT (sodium 3′[1-(phenylaminocarbonyl)-3,4-tetrazolium]-bis(4-methoxy-6-nitro) benzene sulfonic acid hydrate) labeling mixture (final concentration, 125 μM sodium XTT and 25 μM PMS) per well was added and plates were incubated for a further 4 h at 37° C. and 5% CO2. The spectrophotometric absorbance of the sample was measured using a microtitre plate (ELISA) reader. The wavelength to measure absorbance of the formazan product was 450 nm, and the reference wavelength was 650 nm.

Compound: CCOc1cc(Br)c(Br)c(/C=N/c2cccc(C(=O)O)c2C)c1O [DRA9S]
- growth of xenografted LNCaP tumors (tumor volume) [1]: inhibits growth
- growth of xenografted AsPC-1 tumors (tumor volume) [2]: inhibits growth
- growth of xenografted MDA-MB-468 tumors (tumor volume) [3]: inhibits growth

Compound: CCOc1cc(Br)c(Br)c(/C=N/c2cccc(C(=O)O)c2)c1O [DRA9]
- effect of pan caspase inhibitor (z-VAD-fmk) on the inhibitory effect on cell viability [4]: blocks the inhibitory effects
